Assay results taken from patent US20240018146A1, “COMPOSITIONS AND METHODS OF USING THE SAME FOR TREATMENT OF NEURODEGENERATIVE AND MITOCHONDRIAL DISEASE” (MITOKININ, INC., priority 2020, published 2024).
Read-outs that look alike come from different tables or passages of the source.

Legend:
HeLa MKYP cells [1] = test: Human mitophagy assay (HeLa mKeima assay, FACS); assay type: cell-based; details: read-out: Mitophagy induction EC50
Method in brief: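 Mitophagy, read by FACS as the share of cells showing the lysosomal mtKeima emission shift, followed 6 h of 1 uM FCCP/oligomycin stimulation. Before that, HeLa MKYP cells spent 16 h with compound over a concentration range.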

HeLa MKYP cells [2] = test: Cell death measured by DAPI staining, with 1 μM FCCP/oligomycin or no toxin (no FO); assay type: cell-based
Method in brief: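 Cell death was read by DAPI staining after 6–6.5 h compound exposure in HeLa MKYP cells, either with 1 μM FCCP/oligomycin or without toxin. H2O2 served as the cell-death control.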

Row | Structure (SMILES) | EC50 (HeLa MKYP cells [1]; Homo sapiens, HeLa) [µM] | Highest safe dose (cytotoxicity; no FO; safe means DAPI+ <20%) (HeLa MKYP cells [2]) [µM] | Max % death with 1 μM FO (HeLa MKYP cells [2]) [%] | EC50 (HeLa MKYP cells [1]) [µM]
1 | FC(F)(F)c1cc2c(NC3c4ccccc4CCC3N3CCC4(CCOC4)CC3)ncnc2[nH]1 (stereo not drawn) [EP-0040589] | > 25 | 25.0 | 19.4 | –
2 | c1ccc2c(c1)CC[C@@H](C1CCOCC1)[C@H]2Nc1ncnc2[nH]c(C3CC3)cc12 [EP-0040626] | 7.11 | 25.0 | 29.3 | –
3 | c1ccc2c(c1)CC[C@H](C1CCOCC1)[C@@H]2Nc1ncnc2[nH]c(C3CC3)cc12 [EP-0040627] | 24.4 | 25.0 | 4.8 | –
4 | [O-][S+]1CCN(C2CCc3ccccc3C2Nc2ncnc3[nH]c(C4CC4)cc23)CC1 (stereo not drawn) [EP-0040665] | 9.86 | 25.0 | 3.7 | –
5 | Fc1ccc2c(c1)CC[C@@H](N1C[C@@H]3COC[C@H]3C1)[C@@H]2Nc1ncnc2[nH]c(C(F)(F)F)cc12 [EP-0040696] | 23.4 | 25.0 | 14.9 | –
6 | c1ccc2c(c1)CC[C@@H](C1CCOCC1)[C@@H]2Nc1ncnc2[nH]c(C3CC3)cc12 [EP-0040727] | 2.85 | 25.0 | 7.7 | –
7 | c1ccc2c(c1)OC[C@H](C1CCOCC1)[C@H]2Nc1ncnc2[nH]c(C3CC3)cc12 [EP-0040728] | 9.4 | 25.0 | 3.7 | –
8 | c1ccc2c(c1)OC[C@@H](C1CCOCC1)[C@H]2Nc1ncnc2[nH]c(C3CC3)cc12 [EP-0040730] | > 25 | 25.0 | 8.3 | –
9 | c1ccc2c(c1)OC[C@H](C1CCOCC1)[C@@H]2Nc1ncnc2[nH]c(C3CC3)cc12 [EP-0040731] | > 25 | 25.0 | 2.7 | –
10 | c1ccc2c(c1)CC[C@@H](N1C[C@H]3COC[C@@H]3C1)[C@@H]2Nc1ncnc2[nH]c(C3CC3)cc12 [EP-0040767] | > 25 | 25.0 | 7.9 | –
11 | COC1CN([C@@H]2CCc3ccccc3[C@H]2Nc2ncnc3[nH]c(C(F)(F)F)cc23)C1 [EP-0040858] | ≥ 28.8 | 25.0 | 6.6 | –
12 | C[C@@H]1CN([C@H]2COc3ccccc3[C@@H]2Nc2ncnc3[nH]c(C(F)(F)F)cc23)C[C@H](C)O1 [EP-0040942] | > 25 | 25.0 | 4.7 | –
13 | C[C@@H]1CN([C@H]2COc3ccccc3[C@@H]2Nc2ncnc3[nH]c(C(F)(F)F)cc23)CCO1 [EP-0040955] | > 25 | 25.0 | 3.4 | –
14 | C[C@@H]1CN([C@H]2COc3ccccc3[C@@H]2Nc2ncnc3[nH]c(C4CC4)cc23)CCO1 [EP-0040957] | 22.8 | 25.0 | 3.8 | –
15 | C[C@H]1CN([C@H]2COc3ccccc3[C@@H]2Nc2ncnc3[nH]c(C(F)(F)F)cc23)CCO1 [EP-0040979] | > 25 | 25.0 | 4.0 | –
16 | C[C@H]1CN([C@H]2COc3cc(F)ccc3[C@@H]2Nc2ncnc3[nH]c(C(F)(F)F)cc23)CCO1 [EP-0040981] | 2.44 | 25.0 | 7.0 | –

Row | Structure (SMILES) | EC50 (HeLa MKYP cells [1]; Homo sapiens, HeLa) [µM] | Highest safe dose (cytotoxicity; no FO; safe means DAPI+ <20%) (HeLa MKYP cells [2]) [µM] | Max % death with 1 μM FO (HeLa MKYP cells [2]) [%] | EC50 (HeLa MKYP cells [1]) [µM]
17 | C[C@H]1CN([C@@H]2COc3cc(F)ccc3[C@H]2Nc2ncnc3[nH]c(C(F)(F)F)cc23)CCO1 [EP-0040982] | 7.62 | 25.0 | 6.1 | –
18 | C[C@H]1CN([C@@H]2COc3ccccc3[C@H]2Nc2ncnc3[nH]c(C4CC4)cc23)CCO1 [EP-0041000] | 1.32 | 25.0 | 6.5 | –
19 | FC(F)(F)c1cc2c(N[C@@H]3c4ccccc4OC[C@H]3C3CCCOC3)ncnc2[nH]1 (stereo partly drawn) [EP-0041003] | > 25 | 25.0 | 5.3 | –
20 | C[C@@H]1CN([C@H]2COc3cc(F)ccc3[C@@H]2Nc2ncnc3[nH]c(C(F)(F)F)cc23)CCO1 [EP-0041087] | 9.38 | 25.0 | 5.1 | –
21 | C[C@@H]1CN([C@@H]2COc3cc(F)ccc3[C@H]2Nc2ncnc3[nH]c(C4CC4)cc23)CCO1 [EP-0041123] | 11 | 25.0 | 7.3 | –
22 | C[C@H]1CN([C@H]2COc3cc(F)ccc3[C@@H]2Nc2ncnc3[nH]c(C4CC4)cc23)CCO1 [EP-0041124] | 5.32 | 25.0 | 12.7 | –
23 | OC(C1CCOCC1)[C@H]1COc2ccccc2[C@@H]1Nc1ncnc2[nH]c(C(F)(F)F)cc12 (stereo partly drawn) [EP-0041135] | 1.53 | 25.0 | 15.7 | –
24 | CO[C@@H]1CCN([C@@H]2COc3ccccc3[C@H]2Nc2ncnc3[nH]c(C(F)(F)F)cc23)C1 [EP-0041162] | > 25 | 25.0 | 4.2 | –
25 | CO[C@H]1CCN([C@@H]2COc3ccccc3[C@H]2Nc2ncnc3[nH]c(C(F)(F)F)cc23)C1 [EP-0041173] | 4.09 | 25.0 | 6.1 | –
26 | COCC1CC([C@H]2COc3ccccc3[C@@H]2Nc2ncnc3[nH]c(C(F)(F)F)cc23)C1 (stereo partly drawn) [EP-0041260] | 0.85 | 25.0 | 10.2 | –
27 | N#CC1CN([C@H]2COc3ccccc3[C@@H]2Nc2ncnc3[nH]c(C(F)(F)F)cc23)C1 [EP-0041332] | 1.54 | 25.0 | 11.7 | –
28 | CC(C)OC1CN([C@H]2COc3ccccc3[C@@H]2Nc2ncnc3[nH]c(C(F)(F)F)cc23)C1 [EP-0041465] | 6.85 | 25.0 | 4.6 | –
29 | COC(C)(C)C1CN([C@H]2COc3ccccc3[C@@H]2Nc2ncnc3[nH]c(C(F)(F)F)cc23)C1 [EP-0041480] | 2.69 | 25.0 | 4.6 | –
30 | CS(=N)(=O)C1CN(C2COc3ccccc3C2Nc2ncnc3[nH]c(C(F)(F)F)cc23)C1 (stereo not drawn) [EP-0041496] | > 25 | 25.0 | 3.4 | –
31 | CO[C@H]1CCN([C@@H]2COc3ccccc3[C@H]2Nc2ncnc3[nH]c(C4CC4)cc23)C1 [EP-0041518] | > 25 | 25.0 | 7.4 | –
32 | COC[C@H]1CCN([C@H]2COc3ccccc3[C@@H]2Nc2ncnc3[nH]c(C4CC4)cc23)C1 [EP-0041547] | – | 25.0 | 8.2 | 7.29
